{"source": "paper PMC5756575", "about": "“In Vitro Biotransformation, Safety, and Chemopreventive Action of Novel 8-Methoxy-Purine-2,6-Dione Derivatives” (Applied Biochemistry and Biotechnology, 2017)", "key": {"[1]": {"test_system": "Cunninghamella echinulata NRRL 1384", "experiment": "Cunninghamella biotransformation assay, C. echinulata", "format": "in vitro ADME", "details": "7-day incubation; for % of compound/metabolite in C. echinulata: 0.5 mg/mL, LC-MS/MS; for % of tested (parental) compound metabolized at the end of experiment: C. echinulata", "experimental": "(§1) Three different strains of Cunninghamella were used: Cunninghamella echinulata NRRL 1384, Cunninghamella blakesleeana 1908 DMS, and Cunninghamella elegans 1906 DMS. The first was provided by Dr. A.J. Carnell (University of Liverpool, UK), whereas the two remaining were purchased from Deutsche Sammlung von Mikroorganismen und Zellkulturen GmbH (DMSZ, Braunschweig, Germany).\n(§2) Cunninghamella strains were cultivated on solid potato dextrose agar (PDA) plates at 28 °C. After 4 days, a liquid fermentation basal medium was prepared by the addition of 6 g of D-glucose, 1.5 g of NaCl, 1.5 g of yeast extract from Saccharomyces cerevisiae, and 1.5 g of K2HPO4 to 300 mL of distilled water. Aliquots of 24.5 mL of medium were inoculated with 300 μL of suspension of fungal spores obtained after wetting colonies in PDA. The fungi were incubated with shaking until the formation of spherical clumps.\n(§3) Compounds 2–4 were evaluated in this experiment. Once microorganisms formed spherical clumps in the preliminary incubation, the corresponding tested compound was added to the broth and the mixture was incubated for 7 days. Two control experiments were also performed, in the absence of compound and fungus, respectively. Biotransformation progress was monitored by TLC and by liquid chromatography electrospray ionization-tandem mass spectrometry (LC-MS/MS). Monitoring was performed at four different incubation times: 30 min, 3 days, 5 days, and 7 days.\n(§4) To analyze metabolites in LC-MS/MS, an aliquot of 500 μL of filtered sample was taken and extracted with 500 μL of dichloromethane. The organic fraction was dried with sodium sulfate, filtered, and evaporated. The obtained residue was analyzed in LC-MS/MS. At the end of experiment, all the remaining medium was extracted with 25 mL of dichloromethane after separating the fungal clumps by filtration over cellulose filters.\n(§5) Agilent 1100 HPLC system (Agilent Technologies, Waldbronn, Germany) equipped with a Xbridge™ C18 analytical column (2.1 × 30 mm, […]; Waters, Dublin, Ireland) was used in the chromatographic separation of LC-MS/MS analysis. An elution gradient of acetonitrile and water, with 0.1% of formic acid, was used as a mobile phase. MS spectra were taken at Applied Biosystems MDS Sciex API 200 triple quadrupole mass analyzer (Concord, Ontario, Canada) with an electrospray ionization (ESI) interface between HPLC and MS."}, "Vibrio harveyi BB7X": {"test_system": "Vibrio harveyi BB7X", "experiment": "Vibrio harveyi antimutagenicity assay against NQNO, BB7X", "format": "cell-based", "details": "compound 40 ng/mL + NQNO 40 ng/mL; for Number of revertants per plate, Mean ± SD: antimutagenicity, NQNO line = NQNO as a single compound", "text": "(§6) Four Vibrio harveyi strains were used in this study: a wild-type BB7 (naturally found in the Baltic Sea) and three genetically modified strains, namely BB7M (obtained by the introduction of pAB1273 plasmid containing the genes mucA and mucB to enhance the error-prone DNA repair), BB7X (hypersensitive to UV radiation after genetic modification with Tn5TpMCS), and BB7XM (containing the two abovementioned modifications). These strains were kindly provided by Prof. G. Węgrzyn (Department of Molecular Biology, University of Gdańsk, Poland).\n(§7) It causes point mutations at the genome as it induces G:C → A:T transitions in Vibrio harveyi strains and in other bacteria such as Escherichia coli and S. typhimurium. […] Next, its working solution was prepared in sterile water, being 40 ng/mL its final concentration.\n(§8) Procedure followed in the V. harveyi antimutagenicity assay was similar to the mutagenicity method described before. […] The results were expressed as the inhibition percentage of mutagenic effect, which was calculated with the formula: 100 − [(R 1/R 2) × 100], where R 1 is the number of revertants per plate in the presence of both mutagen and tested substance, and R 2 is the number of revertants per plate in the presence of mutagen. […] S. typhimurium antimutagenicity assay was based on similar assumptions as the V. harveyi antimutagenicity test. In this case, the chemopreventive activity was determined at two concentrations of a tested compounds and a standard mutagen, i.e., 40 and 500 ng/mL."}, "[2]": {"test_system": "Cunninghamella elegans 1906 DMS", "experiment": "Cunninghamella biotransformation assay, C. elegans", "format": "in vitro ADME", "details": "7-day incubation; for % of compound/metabolite in C. elegans: 0.5 mg/mL, LC-MS/MS; for % of tested (parental) compound metabolized at the end of experiment: C. elegans", "experimental": "as §1, §2, §3, §4, §5"}, "Vibrio harveyi BB7": {"test_system": "Vibrio harveyi BB7", "experiment": "Vibrio harveyi antimutagenicity assay against NQNO, BB7", "format": "cell-based", "details": "for % inhibition of NQNO mutagenicity / Number of revertants per plate, Mean ± SD: BB7, compound 40 ng/mL + NQNO 40 ng/mL; for Number of revertants per plate, Mean ± SD: antimutagenicity, NQNO line = NQNO as a single compound; for chemopreventive (antimutagenic) effect, class: wild BB7 strain, against NQNO", "text": "as §6, §7, §8"}, "Vibrio harveyi BB7XM": {"test_system": "Vibrio harveyi BB7XM", "experiment": "Vibrio harveyi mutagenicity assay, BB7XM", "format": "cell-based", "details": "40 ng/mL; for MI (mutagenicity index): mutagenic if MI above 2.0; for Number of revertants per plate, Mean ± SD: mutagenicity", "experimental": "From them, 0.2 mM working solutions were prepared by dilution with water. […] Working solutions were prepared by 1:100 dilution of stock solution in water, and final compound concentration assayed was 40 ng/mL.\nas §6, §7\nTo perform the V. harveyi mutagenicity test, 10 μL of a working solution of the tested compound (100 μg/mL) were added to V. harveyi bacterial culture (OD600 = 0.1) in NaCl-containing BOSS liquid medium, being 40 ng/mL the final concentration of the tested compound. […] Then, an inoculum containing 5 × 10^6 cells was added to solid BOSS agar plate supplemented with neomycin sulfate at a final concentration of 100 μg/mL. Samples were left incubating 48 h at 30 °C, and revertant colonies were counted manually."}, "[3]": {"experiment": "DPPH radical scavenging assay", "format": "biochemical", "details": "DPPH 250 μM, compound at 250 μM, 30 min, 517 nm", "experimental": "The capacity of selected 8-methoxy-purine-2,6-dione derivatives to scavenge stable free radical DPPH was assessed. A blank and a triplicate of 10 different concentrations of each compound or of each positive control (gallic and ascorbic acids) were evaluated in the experiment. Aforesaid concentrations of compounds were obtained by dilution from a 1000 μM stock solution in methanol. One hundred microliters of DPPH stock solution were added to each well; later, 100 μL of the corresponding compound dilution were added. Consequently, the final concentration of DPPH radical was 250 μM, whereas the final concentrations of the tested compounds or positive controls were 500, 375, 250, 125, 62.5, 50, 37.5, 25, 12.5, and 6.25 μM. Afterwards, the 96-plate was wrapped with aluminum and stored in the dark 30 min prior to the spectrophotometric measurement at a 517-nm wavelength. The obtained absorbances were used to calculate the percentage of radical scavenged by the action of a compound or of a positive control at each concentration using a formula 100 × (A 0 − A m)/A 0. In this equation A m is the average absorbance of the three triplicates measured at the corresponding concentration and A 0 is the average absorbance of DPPH radical in the absence of the tested substance. Knowing inhibition data at the different concentrations, IC50 was calculated when applicable."}, "[4]": {"test_system": "Cunninghamella blakesleeana 1908 DMS", "experiment": "Cunninghamella biotransformation assay, C. blakesleeana", "format": "in vitro ADME", "details": "7-day incubation; for % of compound/metabolite in C. blakesleeana: 0.5 mg/mL, LC-MS/MS; for % of tested (parental) compound metabolized at the end of experiment: C. blakesleeana", "experimental": "as §1, §2, §3, §4, §5"}, "mice": {"test_system": "mice", "design": "method as in PMID 25443727, PMID 25560569", "details": "writhing syndrome test in mice; cited from earlier work"}}}
{"smiles": "COc1nc2c(c(=O)n(C)c(=O)n2C)n1CCCC(=O)NCc1ccccc1", "note": "[Compound 3, N-benzyl-4-(8-methoxy-1,3-dimethyl-2,6-dioxo-purin-7-yl)butanamide]", "values": [{"measurement": "% of compound/metabolite in C. echinulata", "setting": "[1]", "value": 92.4, "unit": "%"}, {"measurement": "% of tested (parental) compound metabolized at the end of experiment", "setting": "[1]", "value": 7.6, "unit": "%"}, {"measurement": "Number of revertants per plate, Mean ± SD", "setting": "Vibrio harveyi BB7X", "value": "45 ± 9"}, {"measurement": "% inhibition of NQNO mutagenicity", "setting": "Vibrio harveyi BB7X", "value": 58, "unit": "%"}, {"measurement": "% of compound/metabolite in C. elegans", "setting": "[2]", "value": 99.4, "unit": "%"}, {"measurement": "% of tested (parental) compound metabolized at the end of experiment", "setting": "[2]", "value": 0.6, "unit": "%"}, {"measurement": "% inhibition of NQNO mutagenicity", "setting": "Vibrio harveyi BB7", "value": 29, "unit": "%"}, {"measurement": "Number of revertants per plate, Mean ± SD", "setting": "Vibrio harveyi BB7", "value": "38 ± 9"}, {"measurement": "chemopreventive (antimutagenic) effect, class", "setting": "Vibrio harveyi BB7", "value": "moderate or a close to moderate"}, {"measurement": "MI (mutagenicity index)", "setting": "Vibrio harveyi BB7XM", "value": 1.1}, {"measurement": "Number of revertants per plate, Mean ± SD", "setting": "Vibrio harveyi BB7XM", "value": "35 ± 7"}, {"measurement": "maximum radical scavenging percentage observed", "setting": "[3]", "value": 6.56, "unit": "%"}, {"measurement": "% of compound/metabolite in C. blakesleeana", "setting": "[4]", "value": 95.4, "unit": "%"}, {"measurement": "% of tested (parental) compound metabolized at the end of experiment", "setting": "[4]", "value": 4.6, "unit": "%"}]}
{"smiles": "COc1nc2c(c(=O)n(C)c(=O)n2C)n1CCCC(=O)N1CCN(c2ccccc2)CC1", "note": "[Compound 4, 8-methoxy-1,3-dimethyl-7-[4-oxo-4-(4-phenylpiperazin-1-yl)butyl]purine-2,6-dione]", "values": [{"measurement": "% of compound/metabolite in C. echinulata", "setting": "[1]", "value": 12.4, "unit": "%"}, {"measurement": "% of tested (parental) compound metabolized at the end of experiment", "setting": "[1]", "value": 87.6, "unit": "%"}, {"measurement": "Number of revertants per plate, Mean ± SD", "setting": "Vibrio harveyi BB7X", "value": "47 ± 10"}, {"measurement": "% inhibition of NQNO mutagenicity", "setting": "Vibrio harveyi BB7X", "value": 56, "unit": "%"}, {"measurement": "% of compound/metabolite in C. elegans", "setting": "[2]", "value": 47.0, "unit": "%"}, {"measurement": "% of tested (parental) compound metabolized at the end of experiment", "setting": "[2]", "value": 53.0, "unit": "%"}, {"measurement": "% inhibition of NQNO mutagenicity", "setting": "Vibrio harveyi BB7", "value": 53, "unit": "%"}, {"measurement": "Number of revertants per plate, Mean ± SD", "setting": "Vibrio harveyi BB7", "value": "26 ± 6"}, {"measurement": "chemopreventive (antimutagenic) effect, class", "setting": "Vibrio harveyi BB7", "value": "strong (higher than 40%)"}, {"measurement": "MI (mutagenicity index)", "setting": "Vibrio harveyi BB7XM", "value": 1.2}, {"measurement": "Number of revertants per plate, Mean ± SD", "setting": "Vibrio harveyi BB7XM", "value": "41 ± 9"}, {"measurement": "% of compound/metabolite in C. blakesleeana", "setting": "[4]", "value": 33.3, "unit": "%"}, {"measurement": "% of tested (parental) compound metabolized at the end of experiment", "setting": "[4]", "value": 66.6, "unit": "%"}, {"measurement": "fold higher activity than acetylsalicylic acid", "setting": "mice", "value": 23, "unit": "fold"}]}
